Tests used:
[1] = biological target: T1, ACSS2 (Homo sapiens, UniProt Q9NR19); assay: Cellular assay of 14C acetate incorporation into fatty acids (IC50 ACSS2 cellular lipids); type: cell-based; details: HCT-15 cells
T1 construct: endogenous fatty acid synthesis activity in the human HCT-15 cancer cell line; endogenous in cells; host or cells: HCT-15
Method: This protocol describes a cellular assay capable to quantify endogenous fatty acid synthesis activity in the human HCT-15 cancer cell line following the incorporation of extracellularly administered radiolabeled ^14C acetate with a scintillation proximity based read out on extracted fatty acids.
HCT-15 cells were grown in RPMI 1640 (Gibco) supplemented with 2 mM glutamine, 1 mM sodium pyruvate 10 mM HEPES and 10 % FCS (heat-inactivated) passaged every 2-3 days to remain a subconfluent, vital culture. A working cell bank was prepared with each aliquot containing 1x10^7 viable cells. After thawing, these cells are dilute immediately 1:20 in pre-warmed (37° C.) culture medium. Cells are collected by centrifugation at 200 x g for 5 min, and the supernatant is replaced by 30 mL of fresh culture medium per aliquot to obtain a cell suspension containing 350000 cells/ml. From this cell suspension 100 µL are dispersed into each well of a collagen coated 96 well plate, (black, clear bottom, PS, F-bottom, Greiner) and culture for 24 h (37° C., 5% CO2). After incubation the culture medium is removed and the wells are washed once with 100 µL PBS++ (supplemented with Mg^2+/ Ca^2+, Gibco) and 50 µL assay medium (RPMI 1640 + 10 mM HEPES) are added to each well. Compounds serial dilutions are prepared from 10 mM stock solutions in DMSO using a fixed dilution factor (usually 1:3). After preparation of the dilution series in DMSO, the individual dilutions are further diluted in the assay medium. This working dilution is prepared such, that the concentration is 7x of the final concentration in the assay. The maximal DMSO concentration in the final assay is 0.1%.
To each well 10 µL compound working dilution or DMSO blank are added and the cells are cultured for 2 h (37° C., 5% CO2). Then 10 µL AlamarBlue reagent (Invitrogen) containing 14 µCi/mL ^14C-acetate (Perkin Elmer) are added to each well (70 µl total volume) and cells are again cultured for 2 h. Cell viability is verified by measuring the AlamarBlue fluorescence (Tecan Safire, ex: 544 nm / em: 590 nm). After incubation the culture medium is removed and the wells are carefully washed once with cold 100 µL PBS++. For cell lysis and fatty acid recovery 50 µl 0.1 M NaOH and 0.1 % Triton-X100 are added per well. The plate is sealed with PlateLoc (clear peelable heat seal, Agilent) and incubate at 70° C. for 16-24 h. After cooling to room temperature, the plates are centrifuged for 1 min at 1000 rpm and the plate seals are removed. For acidification 150 µL 0.1 M HCl are added to each well, mixed and 150 µL of the mixture are transferred into a 96 well FlashPlate (Perkin Elmer). The plates are sealed with TopSeaI-a (Perkin Elmer). To allow for the fatty acid binding to the well surfaces the plates are incubate for 4 h at 70° C. After cooling to room temperature, the plates are centrifuged for 1 min at 1000 rpm and stored for 0.5-2 h at room temperature in the dark. Radioactivity from ^14C incorporation into fatty acids in the wells is measured as CPM count in a MicroBeta scintillation counter (Perkin Elmer).

[2] = biological target: T2, human rec ACSS2 (Homo sapiens, UniProt Q9NR19); assay: Biochemical activity ACSS2 assay (AMP-Glo); details: human recombinant ACSS2, AMP-Glo, 180 min at 37° C.
T2 construct: myc (C); purchased Origene
Procedure, shortened: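 C-terminal myc-tagged human recombinant ACSS2 (1 nM) reacted with 100 µM ATP, 100 µM CoA and 500 µM acetate (final) in pH 7.5 Hepes buffer for 180 min at 37° C, compound in 10 concentrations from 30 µM. Released AMP detected by AMP-Glo luminescence. IC50 normalised to inhibitor-free reaction and 5 µM reference inhibitor.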

[3] = test system: CHO-K1 cells; assay: Micronucleus assay (MNT) in vitro; type: cell-based; set-up: key: A: negative, putative negative (micronuclei detected beyond threshold of 60% cyctotoxicity); B: positive; details: 24 hrs treatment, 0.2 µM to 100 µM
Method: The in vitro MNT assay is performed in CHO-K1 cells due to their stable and welI-characterized karyotype, high sensitivity and suitability for a high content imaging approach. They have a basal spontaneous micronucleus frequency of 3-4%.
24 hrs after plating CHO-K1 cells are treated with test compounds for 24 hrs (in duplicates; fixed concentration ranges from 0.2 µM to 100 µM in 2-fold dilution steps). After a medium change cells are incubated for 24 hrs with Cytochalasin B to block cytokinesis and are then fixed and nuclei / micronuclei visualized with a DNA stain. Images are acquired with the Molecular Devices high content imagers IXU or IXM and are analyzed with the dedicated MetaXpress software micronucleus module. Criteria for scoring of micronuclei (MN) are the following: • diameter of the MN should be less than ⅓ of the main nucleus • MN should be separated from or marginally overlap with main nucleus (= no blebs) • MN should have similar staining as the main nucleus At least 1000 binucleated cells are evaluated per treatment replicate. Mitomycin C is used as reference stimulator of micronucleus formation. Cytotoxicity is evaluated in parallel and defined by comparing total nuclei count in compound-treated samples to neutral control samples treated with vehicle only (1% DMSO) (100% cytotoxicity means all cells are dead or lost).
A test compound is regarded as POSITIVE if generation of micronuclei and exhibition of less than 60% cytotoxicity at the same concentration can be observed.
Compounds are scored only in the soluble concentration range. Experimental data of the compounds shown in Table 1 in the MNT assay are shown in Table 2 below and classified in the following groups: […]

T1 sequence (Q9NR19 whole entry): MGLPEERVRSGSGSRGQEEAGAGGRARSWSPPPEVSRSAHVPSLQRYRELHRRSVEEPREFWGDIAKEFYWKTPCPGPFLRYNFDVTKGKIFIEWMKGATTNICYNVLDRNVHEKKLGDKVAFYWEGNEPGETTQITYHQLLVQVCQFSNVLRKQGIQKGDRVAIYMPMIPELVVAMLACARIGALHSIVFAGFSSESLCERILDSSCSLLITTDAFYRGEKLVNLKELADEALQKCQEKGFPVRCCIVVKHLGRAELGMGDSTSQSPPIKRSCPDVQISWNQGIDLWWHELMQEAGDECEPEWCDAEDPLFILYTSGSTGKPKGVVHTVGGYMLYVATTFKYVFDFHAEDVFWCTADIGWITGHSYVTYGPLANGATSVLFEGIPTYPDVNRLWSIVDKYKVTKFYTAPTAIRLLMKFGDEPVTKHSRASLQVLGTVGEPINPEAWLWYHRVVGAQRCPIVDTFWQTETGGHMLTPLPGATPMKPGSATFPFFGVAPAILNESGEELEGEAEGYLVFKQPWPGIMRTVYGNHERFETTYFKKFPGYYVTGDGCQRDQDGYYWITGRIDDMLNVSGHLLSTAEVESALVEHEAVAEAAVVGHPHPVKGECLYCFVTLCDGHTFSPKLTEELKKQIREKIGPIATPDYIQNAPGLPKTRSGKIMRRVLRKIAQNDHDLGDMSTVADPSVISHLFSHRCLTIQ
T2 sequence (Q9NR19 whole entry): as above

For CCc1c(C(O)(c2ccccc2)c2ccccc2)nc2cc(OC)c(C(=O)Nc3ncn(CC)n3)cn12 [Compound 24, 3-Ethyl-2-(hydroxy-diphenyl-methyl)-7-methoxy-imidazo[1,2-a]pyridine-6-carboxylic acid (1-ethyl-1H-[1,2,4]triazol-3-yl)-amide], the IC50 [1] was 1 to 10 nM, the IC50 [2] was 1 to 10 nM and the MNT [3] was “A”.
With CCc1c(C(O)(c2ccccc2)c2ccccn2)nc2cc(OC)c(C(=O)Nc3ncn(CC)n3)cn12 (racemic) [Compound 16, 3-Ethyl-2-(hydroxy-phenyl-pyridin-2-yl-methyl)-7-methoxy-imidazo[1,2-a]pyridine-6-carboxylic acid (1-ethyl-1H-[1,2,4]triazol-3-yl)-amide] the IC50 [1] was 10 to 100 nM, the IC50 [2] was 10 to 100 nM and the MNT [3] was “A”.
CCc1c(C(O)(c2ccccc2)c2ccccc2)nc2cc(OC)c(C(=O)Nc3cnn(CC)c3)cn12 [Compound 23, 3-Ethyl-2-(hydroxy-diphenyl-methyl)-7-methoxy-imidazo[1,2-a]pyridine-6-carboxylic acid (1-ethyl-1H-pyrazol-4-yl)-amide] was tested, and the IC50 [1] was 10 to 100 nM, the IC50 [2] was 1 to 10 nM and the MNT [3] was “A”.
In the case of CCc1c(C(O)(c2ccccc2F)c2ccccc2F)nn2cc(OC)c(C(=O)Nc3cnn(CC)c3)cc12 [Compound 4, 2-[Bis-(2-fluoro-phenyl)-hydroxy-methyl]-3-ethyl-6-methoxy-pyrazolo[1,5-a]pyridine-5-carboxylic acid (1-ethyl-1H-pyrazol-4-yl)-amide], the IC50 [1] is reported as 10 to 100 nM, the IC50 [2] is reported as 10 to 100 nM and the MNT [3] is reported as “A”.
CCc1c(C(O)(c2ccccc2)c2ccccc2)nc2ccc(C(=O)Nc3cnn(CC)c3)cn12 [Compound 13, 3-Ethyl-2-(hydroxy-diphenyl-methyl)-imidazo[1,2-a]pyridine-6-carboxylic acid (1-ethyl-1H-pyrazol-4-yl)-amide] was tested, and the IC50 [1] was 100 to 10000 nM, the IC50 [2] was 10 to 100 nM and the MNT [3] was “A”.
With CCn1cnc(NC(=O)c2cc3c(nc2OC)nc(C(O)(c2ccccc2F)c2ccccc2F)n3CC)n1 [Compound 102, 2-[bis(2-fluorophenyl)(hydroxy)methyl]-1-ethyl-N-(1-ethyl-1H-1,2,4-triazol-3-yl)-5-methoxy-1H-imidazo[4,5-b]pyridine-6-carboxamide] the IC50 [1] was 1 to 10 nM, the IC50 [2] was 0.01 to 1 nM and the MNT [3] was “A”.
For CCc1c(C(O)(c2ccccc2F)c2ccccc2F)nc2cc(Cl)c(C(=O)Nc3ncn(CC)n3)cn12 [Compound 31, 2-[Bis-(2-fluoro-phenyl)-hydroxy-methyl]-7-chloro-3-ethyl-imidazo[1,2-a]pyridine-6-carboxylic acid (1-ethyl-1H-[1,2,4]triazol-3-yl)-amide], the IC50 [1] was 1 to 10 nM, the IC50 [2] was 1 to 10 nM and the MNT [3] was “A”.
With CCc1c(C(O)(c2ccccc2F)c2ccccc2F)nc2cc(OC)c(C(=O)Nc3cnn(CC)c3)cn12 [Compound 30, 2-[Bis-(2-fluoro-phenyl)-hydroxy-methyl]-3-ethyl-7-methoxy-imidazo[1,2-a]pyridine-6-carboxylic acid (1-ethyl-1H-pyrazol-4-yl)-amide] the IC50 [1] was 0.01 to 1 nM, the IC50 [2] was 1 to 10 nM and the MNT [3] was “A”.
With CCc1c(C(O)(c2ccccc2F)c2ccccc2F)nn2cc(Cl)c(C(=O)Nc3ncn(CC)n3)cc12 [Compound 2, 2-[Bis-(2-fluoro-phenyl)-hydroxy-methyl]-6-chloro-3-ethyl-pyrazolo[1,5-a]pyridine-5-carboxylic acid (1-ethyl-1H-[1,2,4]triazol-3-yl)-amide] the IC50 [1] was 0.01 to 1 nM, the IC50 [2] was 1 to 10 nM and the MNT [3] was “A”.
For CCc1c(C(O)(c2ccccc2)c2ccccc2)nn2cc(Cl)c(C(=O)Nc3cnn(CC)c3)cc12 [Compound 6, 6-Chloro-3-ethyl-2-(hydroxy-diphenylmethyl)-pyrazolo[1,5-a]pyridine-5-carboxylic acid (1-ethyl-1H-pyrazol-4-yl)-amide], the IC50 [1] was 1 to 10 nM, the IC50 [2] was 10 to 100 nM and the MNT [3] was “A”.
CCn1c(C(O)(c2ccccc2)c2ccccc2)nc2ccc(C(=O)NC[C@@H](C)O)cc21 [Reference Compound, 3-Ethyl-2-[hydroxy(diphenyl)methyl]-N-[(2R)-2-hydroxypropyl]benzimidazole-5-carboxamide, reference compound] was tested, and the IC50 [1] was 1 to 10 nM, the IC50 [2] was 100 to 10000 nM and the MNT [3] was “B”.
CCc1c(C(O)(c2ccccc2)c2ccccc2)nn2cc(OC)c(C(=O)Nc3ncn(CC)n3)cc12 [Compound 11, 3-Ethyl-2-(hydroxy-diphenyl-methyl)-6-methoxy-pyrazolo[1,5-a]pyridine-5-carboxylic acid (1-ethyl-1H-[1,2,4]triazol-3-yl)-amide] was tested, and the IC50 [1] was 1 to 10 nM, the IC50 [2] was 1 to 10 nM and the MNT [3] was “A”.
CCc1c(C(O)(c2ccccc2)c2ccccc2)nc2cc(Cl)c(C(=O)Nc3cnn(CC)c3)cn12 [Compound 19, 7-Chloro-3-ethyl-2-(hydroxy-diphenylmethyl)-imidazo[1,2-a]pyridine-6-carboxylic acid (1-ethyl-1H-pyrazol-4-yl)-amide] was tested, and the IC50 [1] was 10 to 100 nM, the IC50 [2] was 10 to 100 nM and the MNT [3] was “A”.
For CCc1c(C(O)(c2ccccc2)c2ccccc2)nn2cc(Cl)c(C(=O)Nc3ncn(CC)n3)cc12 [Compound 1, 6-Chloro-3-ethyl-2-(hydroxy-diphenylmethyl)-pyrazolo[1,5-a]pyridine-5-carboxylic acid (1-ethyl-1H-[1,2,4]triazol-3-yl)-amide], the IC50 [1] was 0.01 to 1 nM, the IC50 [2] was 0.01 to 1 nM and the MNT [3] was “A”.
For CCc1c(C(O)(c2ccccc2F)c2ccccc2F)nc2cc(OC)c(C(=O)Nc3ncn(CC)n3)cn12 [Compound 28, 2-[Bis-(2-fluoro-phenyl)-hydroxy-methyl]-3-ethyl-7-methoxy-imidazo[1,2-a]pyridine-6-carboxylic acid (1-ethyl-1H-[1,2,4]triazol-3-yl)-amide], the IC50 [1] was 1 to 10 nM, the IC50 [2] was 1 to 10 nM and the MNT [3] was “A”.
CCn1cnc(NC(=O)c2cc3c(nc2OC)nc(C(O)(c2ccccc2F)c2ccc(OC(F)F)cc2F)n3CC)n1 (racemic) [Compound 94, 2-{[4-(difluoromethoxy)-2-fluorophenyl](2-fluorophenyl)hydroxymethyl}-1-ethyl-N-(1-ethyl-1H-1,2,4-triazol-3-yl)-5-methoxy-1H-imidazo[4,5-b]pyridine-6-carboxamide] was tested, and the IC50 [1] was 1 to 10 nM, the IC50 [2] was 1 to 10 nM and the MNT [3] was “A”.
With CCc1c(C(O)(c2ccccc2)c2ccccc2)nc2ccc(C(=O)Nc3ncn(CC)n3)cn12 [Compound 25, 3-Ethyl-2-(hydroxy-diphenyl-methyl)-imidazo[1,2-a]pyridine-6-carboxylic acid (1-ethyl-1H-[1,2,4]triazol-3-yl)-amide] the IC50 [1] was 1 to 10 nM, the IC50 [2] was 1 to 10 nM and the MNT [3] was “A”.
